Patent publication US11793845B2, “Composition for ameliorating peripheral sensory neuropathy” (KINKI UNIVERSITY, priority 2016, dated 2023)

Tests used:
Format in all cases: in vivo
[1] = test system: Peripheral Sensory Neuropathy Induced by Oxaliplatin in Mice; assay: von Frey test, oxaliplatin-induced peripheral sensory neuropathy
Description: (§3) Male Balb/c mice of 6 to 7 weeks old were used. The mice were divided into three groups: a control group, an oxaliplatin administration group, and an oxaliplatin and Lentinus edodes mycelium extract administration group (oxaliplatin+Lentinus edodes mycelium extract administration group). Oxaliplatin was administered to each mouse once a day at a dose of 6 mg/kg. Further, the Lentinus edodes mycelium extract was administered to each mouse once a day at a dose of 2 g/kg.
(§4) Further, the number of times of administration was set to once a week (on Day 0, Day 7, and Day 14) for oxaliplatin and daily (from Day 0 to Day 15) for the Lentinus edodes mycelium extract in both the von Frey test and the cold plate test below.
The higher number of times of avoidance means that the mouse avoids the stimulation by the filament more. […] When the difference with the control group was determined to be significant using a significance level of 5%, the data were marked by “*”.

[2] = test system: Peripheral Sensory Neuropathy Induced by Bortezomib in Mice; assay: von Frey test, bortezomib-induced peripheral sensory neuropathy; settings: duloxetine 30 mg/kg daily
Text: (§1) The mice in the three groups in the above (1) were put in a cage and a filament having a strength of 0.16 g was pressed on the plantar surface of the leg to measure the number of times (a score) of avoidance response.
In the present test, the mice were divided into three groups by a difference in test objects. As in Example 1, male Balb/c mice of 6 to 7 weeks old were used. The mice were divided into a total of three groups, a control group, a bortezomib administration group, and a bortezomib and Lentinus edodes mycelium extract administration group (bortezomib+Lentinus edodes mycelium extract administration group).
Bortezomib was administered to each mouse once a day at a dose of 1 mg/kg. Further, the Lentinus edodes mycelium extract was administered to each mouse once a day at a dose of 2 g/kg.
Further, the number of times of administration was set to once a week (on Day 0, Day 7, and Day 14) for bortezomib and daily (from Day 0 to Day 15) for the Lentinus edodes mycelium extract in both the von Frey test and the cold plate test below.
Evaluation was performed in the same manner as in the test with oxaliplatin in Example 1. Referring to FIG. 7, the horizontal axis indicates an elapsed time after administration (days) and the vertical axis indicates the avoidance response (scores). Open circles with a solid line represent the control group. Filled circles with a solid line represent the group in which only bortezomib was administered. Open squares with a dash line represent the group in which bortezomib and the Lentinus edodes mycelium extract were administered at the same time (bortezomib+Lentinus edodes mycelium extract administration group). When the difference with the control group was determined to be significant using a significance level of 5%, the data were marked by “*”.
(§2) In the present test, the mice were divided into six groups by a difference in test objects. As in Example 1, male Balb/c mice of 6 to 7 weeks old were used. […]

[3] = test system: Peripheral Sensory Neuropathy Induced by Paclitaxel in Mice; assay: von Frey test, paclitaxel-induced peripheral sensory neuropathy; settings: duloxetine 30 mg/kg daily
Text: as §1
Male Balb/c mice of 6 to 7 weeks old were used as in Example 1. The mice were divided into three groups: a control group, a paclitaxel administration group, and a paclitaxel and Lentinus edodes mycelium extract administration group (paclitaxel+Lentinus edodes mycelium extract administration group). Paclitaxel was administered to each mouse once a day at a dose of 6 mg/kg. Further, the Lentinus edodes mycelium extract was administered to each mouse once a day at a dose of 2 g/kg.
Further, the number of times of administration was set to once a week (on Day 0, Day 7, and Day 14) for paclitaxel and daily (from Day 0 to Day 15) for the Lentinus edodes mycelium extract in both the von Frey test and the cold plate test below.
Evaluation was performed in the same manner as in the test with oxaliplatin. Referring to FIG. 3, the horizontal axis indicates an elapsed time after administration (days) and the vertical axis indicates the avoidance response (scores). Open circles with a solid line represent the control group. Filled circles with a solid line represent the group in which only paclitaxel was administered. Open squares with a dash line represent the group in which paclitaxel and the Lentinus edodes mycelium extract were administered (paclitaxel+Lentinus edodes mycelium extract administration group). When the difference with the control group was determined to be significant using a significance level of 5%, the data were marked by “*”.
as §2

[4] = test system: Peripheral Sensory Neuropathy Induced by Oxaliplatin in Mice; assay: cold plate test, oxaliplatin-induced peripheral sensory neuropathy; settings: duloxetine 30 mg/kg daily
Description: as §3, §4
The effect of the Lentinus edodes mycelium extract on the paresthesia to cold stimulation was tested by performing the cold plate test. The mice in the three groups in the above (1) were put on a cold plate set to 10° C. and a response time for avoidance (a latency) was measured. The shorter latency means that the mouse avoids the cold stimulation of the cold plate more.
Oxaliplatin was administered to each mouse once a day at a dose of 6 mg/kg. Further, the Lentinus edodes mycelium extract was administered to each mouse once a day at a dose of 2 g/kg three days or six days after the administration of oxaliplatin. These groups are referred to as “Lentinus edodes mycelium extract 3-day delayed administration group” and “Lentinus edodes mycelium extract 6-day delayed administration group”, respectively.
Further, groups in which duloxetine was administered after the administration of oxaliplatin were prepared for comparison.

CNCC[C@H](Oc1cccc2ccccc12)c1cccs1 [duloxetine]
avoidance score compared with oxaliplatin administration group, von Frey test ([1]; duloxetine 30 mg/kg daily Day 3 to Day 23 (3-day delayed) after oxaliplatin 6 mg/kg weekly): almost the same score as that in the oxaliplatin administration group
avoidance score, von Frey test ([1]; duloxetine 30 mg/kg daily Day 6 to Day 23 (6-day delayed) after oxaliplatin 6 mg/kg weekly): same tendency as that in the duloxetine 3-day delayed administration group
avoidance score compared with bortezomib administration group, von Frey test ([2]; 3-day delayed after bortezomib): almost the same score as that in the bortezomib administration group
avoidance score, von Frey test ([2]; 6-day delayed after bortezomib): same tendency as that in the duloxetine 3-day delayed administration group
avoidance score compared with paclitaxel administration group, von Frey test ([3]; 3-day delayed after paclitaxel): almost the same avoidance score as that in the paclitaxel administration group
avoidance score, von Frey test ([3]; 6-day delayed after paclitaxel): same tendency as that in the duloxetine 3-day delayed administration group
latency compared with oxaliplatin administration group, cold plate test ([4]; 3-day delayed after oxaliplatin): almost the same as that in the oxaliplatin administration group
latency, cold plate test ([4]; 6-day delayed after oxaliplatin): same tendency as that in the duloxetine 3-day delayed administration group
